Data reported in US20130197080A1, “USE OF TERIFLUNOMIDE FOR TREATING MULTIPLE SCLEROSIS” (SANOFI, priority 2010, published 2013).

Experiments:
patients with RMS [1] = assay: TEMSO Phase III trial: relapses, disability progression, fatigue; format: in vivo, humans; conditions: for Hazard ratio for teriflunomide vs placebo (12-week sustained disability progression) / Hazard ratio for teriflunomide vs placebo (relapse): Cox model; for Patients with a 12-week sustained disability progression / Patients without relapse during 108 weeks: Kaplan-Meier estimate; for Fatigue Impact scale score, LS mean change from baseline: MMRM
Description: They were required to have a score of no more than 5.5 on the Kurtzke Expanded Disability Status Scale (EDSS), a minimum of two clinical relapses in the previous 2 years or one relapse during the preceding year, but no relapses in the 60 days before randomization. During the 4 weeks prior to randomization, patients were required to be clinically stable and have signed both the informed consent form and informed consent for HIV testing.
(§1) A treatment neurologist at each site was responsible for evaluating patient eligibility, supervision of study medication administration, recording and treating adverse events and assessing relapses, and monitoring safety assessments. An independent examining neurologist, blinded to treatment assignment, performed all EDSS scores and functional system assessments. EDSS scores were determined at screening, baseline, every 12 weeks following baseline visit, and at unscheduled relapse visits. MRI scans were performed at baseline and Weeks 24, 48, 72 and 108, and conducted according to the study protocol; image data were collected at clinical site MRI facilities.
For suspected relapses occurring between study visits, patients were required to attend the study site within 7 days of symptom onset for objective assessment by the examining neurologist. Relapses could be treated with intravenous corticosteroids at the investigator's discretion.
The primary study objective was to determine the effect of teriflunomide in reducing annualized relapse rate (ARR; the number of confirmed relapses per patient-year). A relapse was defined as the appearance of a new clinical sign or symptom or clinical worsening of a previous sign or symptom that had been stable for at least 30 days and persisted for a minimum of 24 hours in the absence of fever. Confirmed relapses required an increase of 1 point in at least two functional systems, or an increase of 2 points in at least one functional system (excluding bowel/bladder and cerebral function), or an increase of 0.5 points in EDSS score (1.0 for EDSS=0) from the previous clinically stable assessment.
(§2) The key secondary endpoint was to determine the effect of teriflunomide on delaying disability progression at Week 108 as assessed by changes in EDSS. Sustained disability progression was defined as a persisting increase from baseline of at least 1.0 point on the EDSS (or at least 0.5 for patients with a baseline EDSS score greater than 5.5) for at least 12 weeks. The key prespecified MRI endpoint was the effect of teriflunomide on burden of disease (total lesion volume). Other MRI endpoints included number of gadolinium (Gd)-enhancing T1 lesions, volume of T1 hypointense lesion components (‘black holes’), number of unique active lesions and brain atrophy. Patient-reported fatigue, assessed by the Fatigue Impact Scale (FIS), was an additional secondary endpoint.
A sample size of 360 randomized patients per group was required to provide 95% statistical power to detect relative risk reductions (RRR) of 25% in ARR after 2 years, assuming a placebo ARR of 0.74 and standard deviation of 0.626. All analyses followed an intention-to-treat (ITT) principle and all inferential analyses were performed at the 2-sided 5% level of significance. ARR was analyzed using a Poisson regression model with robust error variance. The model included the total number of confirmed relapses as the response variable, and treatment, baseline EDSS strata, and region as covariates, and log transformed duration of treatment as offset variable.
Disability progression was analyzed using a log-rank test with time to first disability progression as the dependent variable, treatment as test variable, and region and baseline EDSS score as strata variables. Kaplan-Meier estimates and curves of the cumulative incidence were used to assess the rate of disability progression in patients across time points. […]

patients with RMS [2] = assay: TEMSO Phase III trial: MRI outcomes; format: in vivo, humans; conditions: 108 weeks; for Brain parenchymal fraction, LS mean change from baseline / Brain parenchymal fraction, LS mean difference vs placebo / Brain parenchymal fraction, Relative reduction vs placebo: MMRM; for Number of Gd-enhancing T1 lesions per scan, Estimate / Number of unique active lesions per scan, Estimate: Poisson regression
Experimental: as §1, §2
Change from baseline in burden of disease and T1 hypointense lesion volume were analysed with a mixed-effect model with repeated measures (MMRM) using cubic root transformed data. Atrophy was analysed as change from baseline brain volume with the MMRM. The number of Gd-enhancing T1 lesions and number of unique active lesions per scan were analysed using a Poisson regression model with robust error variance. The percentage of patients free from lesions was analysed using a logistic regression model. MRI scans obtained within 14 days of systemic corticosteroid therapy were excluded from all analyses.
The MMRM model (mixed-effect model with repeated measures) included treatment, EDSS strata, region, visit, treatment-by-visit interaction, baseline value and baseline-by-visit interaction as covariates. The percentage of patients free from lesions was analysed by a logistic regression model that included treatment, number of lesions at baseline, EDSS strata and region as covariates. The Poisson regression model included treatment, number of lesions at baseline, EDSS strata and region as covariates, and log-transformed number of scans as an offset variable. The change from baseline in fatigue impact scale (FIS) total score was analyzed using MMRM.

[3] = 7 mg once daily oral, 108 weeks, ITT population
[4] = 7 mg once daily oral, 108 weeks, ITT population (N = 365)
[5] = 7 mg once daily oral, ITT population
[6] = 14 mg once daily oral, 108 weeks, ITT population
[7] = 14 mg once daily oral, 108 weeks, ITT population (N = 358)
[8] = 14 mg once daily oral, ITT population
[9] = 7 mg once daily oral vs placebo
[10] = 7 mg once daily oral, MMRM using cubic root transformed volume data
[11] = 14 mg once daily oral vs placebo
[12] = 14 mg once daily oral, MMRM using cubic root transformed volume data

Compound: C/C(O)=C(\C#N)C(=O)Nc1ccc(C(F)(F)F)cc1 [teriflunomide, (Z)-2-cyano-3-hydroxy-but-2-enoic acid-(4′-trifluoromethylphenyl)-amide]
- Hazard ratio for teriflunomide vs placebo (12-week sustained disability progression) (patients with RMS [1]; [3]): 0.763
- Hazard ratio for teriflunomide vs placebo (relapse) (patients with RMS [1]; [3]): 0.756
- Adjusted Annualized Relapse Rate (patients with RMS [1]; [3]): 0.370
- Hazard ratio reduction vs placebo (disability progression) (patients with RMS [1]; [3]): 23.7%
- No. of relapses 0 - patients (%) (patients with RMS [1]; [3]): (57.8) %
- No. of relapses 1 - patients (%) (patients with RMS [1]; [3]): (25.2) %
- No. of relapses 2 - patients (%) (patients with RMS [1]; [3]): (13.4) %
- No. of relapses 3 - patients (%) (patients with RMS [1]; [3]): (2.7) %
- No. of relapses ≧4 - patients (%) (patients with RMS [1]; [3]): (0.8) %
- Relative Reduction in Annualized Relapse rate vs placebo (patients with RMS [1]; [3]): 31.2%
- No. of relapses 0 - no. of patients (patients with RMS [1]; [4]): 211
- No. of relapses 1 - no. of patients (patients with RMS [1]; [4]): 92
- No. of relapses 2 - no. of patients (patients with RMS [1]; [4]): 49
- No. of relapses 3 - no. of patients (patients with RMS [1]; [4]): 10
- No. of relapses ≧4 - no. of patients (patients with RMS [1]; [4]): 3
- Patients with a 12-week sustained disability progression (patients with RMS [1]; [3]): 21.7%
- Fatigue Impact scale score, LS mean change from baseline (patients with RMS [1]; [3]): 2.3
- Patients without relapse during 108 weeks (patients with RMS [1]; [5]): 53.7%
- patients who discontinued treatment due to disease progression, compared with placebo (patients with RMS [1]; 14 mg group, p=0.02): lower number
- Hazard ratio for teriflunomide vs placebo (12-week sustained disability progression) (patients with RMS [1]; [6]): 0.702
- Hazard ratio for teriflunomide vs placebo (relapse) (patients with RMS [1]; [6]): 0.719
- Adjusted Annualized Relapse Rate (patients with RMS [1]; [6]): 0.369
- No. of relapses 0 - patients (%) (patients with RMS [1]; [6]): (60.6) %
- No. of relapses 1 - patients (%) (patients with RMS [1]; [6]): (24.0) %
- No. of relapses 2 - patients (%) (patients with RMS [1]; [6]): (9.2) %
- No. of relapses 3 - patients (%) (patients with RMS [1]; [6]): (4.5) %
- No. of relapses ≧4 - patients (%) (patients with RMS [1]; [6]): (1.7) %
- No. of relapses 0 - no. of patients (patients with RMS [1]; [7]): 217
- No. of relapses 1 - no. of patients (patients with RMS [1]; [7]): 86
- No. of relapses 2 - no. of patients (patients with RMS [1]; [7]): 33
- No. of relapses 3 - no. of patients (patients with RMS [1]; [7]): 16
- No. of relapses ≧4 - no. of patients (patients with RMS [1]; [7]): 6
- Patients with a 12-week sustained disability progression (patients with RMS [1]; [6]): 20.2%
- Fatigue Impact scale score, LS mean change from baseline (patients with RMS [1]; [6]): 3.8
- Patients without relapse during 108 weeks (patients with RMS [1]; [8]): 56.5%
- Patient-reported fatigue (FIS scores) (patients with RMS [1]; all treatment groups, during the study): remained stable
- brain atrophy from baseline vs placebo (patients with RMS [2]; 7 mg and 14 mg groups): No significant differences
- Number of Gd-enhancing T1 lesions per scan, Relative risk (patients with RMS [2]; [9]): 0.428
- Number of unique active lesions per scan, Relative risk (patients with RMS [2]; [9]): 0.523
- Number of Gd-enhancing T1 lesions per scan, Relative reduction vs placebo (patients with RMS [2]; 7 mg once daily oral): 57.2%
- Number of unique active lesions per scan, Relative reduction vs placebo (patients with RMS [2]; 7 mg once daily oral): 47.7%
- Burden of disease, Mean change from baseline (patients with RMS [2]; [5]): 1.308 mL
- Proportion of patients free from Gd-enhancing T1 lesions, % (patients with RMS [2]; [5]): (51.4) %
- T1 hypointense lesion volume, Mean change from baseline (patients with RMS [2]; [5]): 0.499 mL
- Brain parenchymal fraction, LS mean change from baseline (patients with RMS [2]; 7 mg once daily oral): −0.003
- Brain parenchymal fraction, LS mean difference vs placebo (patients with RMS [2]; 7 mg once daily oral): 0.001
- Brain parenchymal fraction, Relative reduction vs placebo (patients with RMS [2]; 7 mg once daily oral): 25.0%
- Burden of disease, LS mean change from baseline (patients with RMS [2]; [10]): 0.080 mL
- Burden of disease, LS mean difference vs placebo (patients with RMS [2]; [10]): -0.053 mL
- Burden of disease, Relative reduction vs placebo (patients with RMS [2]; [10]): 39.4%
- T1 hypointense lesion volume, LS mean change from baseline (patients with RMS [2]; [10]): 0.079 mL
- T1 hypointense lesion volume, LS mean difference vs placebo (patients with RMS [2]; [10]): -0.016 mL
- T1 hypointense lesion volume, Relative reduction vs placebo (patients with RMS [2]; [10]): 16.7%
- Number of Gd-enhancing T1 lesions per scan, Estimate (patients with RMS [2]; [5]): 0.570
- Number of unique active lesions per scan, Estimate (patients with RMS [2]; [5]): 1.288
- Number of Gd-enhancing T1 lesions per scan, Relative risk (patients with RMS [2]; [11]): 0.196
- Number of unique active lesions per scan, Relative risk (patients with RMS [2]; [11]): 0.306
- Burden of disease, Mean change from baseline (patients with RMS [2]; [8]): 0.723 mL
- T1 hypointense lesion volume, Mean change from baseline (patients with RMS [2]; [8]): 0.331 mL
- Brain parenchymal fraction, LS mean change from baseline (patients with RMS [2]; 14 mg once daily oral): −0.003
- Brain parenchymal fraction, LS mean difference vs placebo (patients with RMS [2]; 14 mg once daily oral): 0.001
- Brain parenchymal fraction, Relative reduction vs placebo (patients with RMS [2]; 14 mg once daily oral): 25.0%
- Burden of disease, LS mean change from baseline (patients with RMS [2]; [12]): 0.043 mL
- Burden of disease, LS mean difference vs placebo (patients with RMS [2]; [12]): -0.089 mL
- T1 hypointense lesion volume, LS mean change from baseline (patients with RMS [2]; [12]): 0.066 mL
- T1 hypointense lesion volume, LS mean difference vs placebo (patients with RMS [2]; [12]): -0.030 mL
- Number of Gd-enhancing T1 lesions per scan, Estimate (patients with RMS [2]; [8]): 0.261
- Number of unique active lesions per scan, Estimate (patients with RMS [2]; [8]): 0.754
